Patent US20190224260A1, “Metabolic Syndrome Inhibitor” (J-OIL MILLS, INC., priority 2016, published 2019)

Tested on: rat primary visceral fat cells
Test: Cell test: fat droplet area (Oil Red O staining) in visceral fat cells
Assay type: cell-based
Conditions: test solution in DMSO diluted 1000-fold with medium; cultured 2+2 days; vs control group (DMSO); FIG. 15, p 0.01 or less
Method: 100 μL of dimethylsulfoxide (DMSO) was added to 4.147 mg of unsaponifiable matter, or 259.65 μL of dimethylsulfoxide (DMSO) was added to 1.0716 mg of the avenasterol fraction, and which was sonicated for 1 minute to obtain a test solution. The test solution of the unsaponifiable matter (avenasterol concentration: 1.41 mg/ml) was referred to as an unsaponifiable matter group, and the test solution of the avenasterol (avenasterol concentration: 3.60 mg/ml) was referred to as an avenasterol fraction group. Furthermore, a DMSO without the unsaponifiable matter nor the avenasterol fraction (control group) was prepared. Each test solution in each group was diluted 1000-fold with a medium described in the following “Cell test”, and sonicated for 1 minute to obtain a medium with the test solution. […]
The medium was removed, and the inside of the well was washed with 0.5 mL of phosphate buffered saline (PBS). […] The cells were microscopically observed at a magnification of 200 times, and visceral fat cells with stained fat droplets were recorded as images on a recording device of a computer.
Area values of the lipid droplets stained with the Oil Red O on the above-described images were measured using the image processing software ImageJ (1.48 v) (obtained from https://imagej.nih.gov/ij/). The cell test was carried out three times, and four images were recorded in each group for each cell test. […]

Substance: Avenasterol
- fat accumulation in the fat cell (relative area value of fat droplets): significantly inhibited
